Test results reported in US9045505B2, “Nitric oxide donors” (University of Otago, priority 2006, dated 2015).

System: liver mitochondria
Test: S-nitrosation of mitochondrial protein thiols (chemiluminescence SNO assay)
Type: biochemical, rat
Details: for S-nitrosation of mitochondrial proteins: 2.5 min incubation, SNAP even at 50 μM
Protocol: FIG. 11 is a series of graphs showing S-nitrosation of mitochondrial thiols by MitoSNAP. (a) Time course of S-nitrosation of mitochondrial proteins by MitoSNAP. Liver mitochondria (1 mg protein) were incubated in 1 ml KCl buffer supplemented with rotenone and succinate in the presence of 5 μM MitoSNAP. At various times mitochondria were treated with 10 mM N-ethylmaleimide (NEM), isolated by centrifugation and the S-nitrosothiol content assessed. Data are of a typical experiment showing means±range of duplicate samples for each time point, each measured in duplicate. The experiment was repeated twice. (b) S-nitrosation of mitochondrial proteins by different concentrations of MitoSNAP and SNAP. Aliquots of liver mitochondria were incubated with the indicated concentrations of MitoSNAP or SNAP for […] in the presence or absence of 500 nM FCCP and then assessed for S-nitrosothiol content as in (a). For the +NEM sample, 10 mM NEM was added to the mitochondria and 1 min later 5 μM MitoSNAP was added and incubated for a further 2.5 min. Data are of a typical experiment showing means±range of duplicate samples for each time point, each measured in duplicate. The experiment was repeated twice. (c) S-nitrosation of cellular protein thiols by MitoSNAP. C2C12 cells were preincubated for 5 min in 2 ml cell culture medium containing either 20 μM FCCP or DMSO carrier, then 5 μM MitoSNAP or SNAP was added. After further incubation for 5 min at 37° C. in the dark, the medium was removed and the content of S-nitrosated proteins was measured. Data are means±range of the duplicate determinations. […] (d) S-nitrosation of a mitochondria-enriched cell subfraction. C2C12 cells were preincubated for 5 min in cell culture medium containing either 20 μM FCCP or dimethylsulfoxide (DMSO) carrier, then 5 μM MitoSNAP was added. After 5 min at 37° C. in the dark, the medium was removed and the cells were processed to isolate a mitochondria-enriched fraction and S-nitrosated protein was then determined Data are mean±sem of triplicate determinations (+MitoSNO1), or mean±range of duplicate determinations (+FCCP). (e & f) Visualisation of S-nitrosated mitochondrial proteins by copper/ascorbate-dependent labelling of thiols with a Cy3 fluorophore. Liver (e) or heart (f) mitochondria (1 mg protein) were incubated in 1 ml KCl buffer supplemented with rotenone and succinate in the presence of no additions, 10 μM MitoSNAP or 500 μM diamide for 5 min. S-nitrosated thiols were then selectively tagged with Cy3 maleimide and protein (10 μg) was then separated on a 12.5% SDS PAGE gel which was stained with coomassie blue and scanned for Cy3 fluorescence. The Cy3 fluorescence (SNO) and coomassie staining (coomassie) of each gel is shown.
FIG. 13 is a trace and graph showing limited S-nitrosation of mitochondria by DetaNONOate. […] Where indicated 500 μM DetaNONOate was added and the concentration of NO^• was measured over time, before 5 μM OxyHb was added. […] Then protein pellets were resuspended and processed for analysis of protein S-nitrosothiols. Control incubations in the presence of 10 mM NEM were also carried out. Data are means±range of two independent experiments each being the average of four mitochondrial incubations.
Nitrite, nitric oxide and S-nitrosothiol measurements. Nitrite was analyzed by the Griess assay (Molecular Probes). Nitric oxide was measured using an NO^• electrode (World Precision Instruments Ltd, UK) connected to an Apollo 4000 Free Radical Analyser. The electrode was inserted into a stirred, sealed 3 ml chamber with a Clark type O2 electrode (Rank Brothers, UK) built into its base and was thermostatted at 37° C. The NO^• electrode was calibrated by adding SNAP to argon-purged, saturated CuCl. OxyHb was prepared by reduction of bovine methemoglobin with sodium dithionite.

SMILES | S-nitrosation of mitochondrial proteins | maximum S-nitrosation as share of the total number of protein thiols available (5 μM) [%] | maximum extent of mitochondrial protein S-nitrosation (5 μM) [pmol SNO/mg protein] | S-nitrosated proteins after sulfosalicylic acid lysis and precipitation (control experiment) (5 μM, 5 min, mean±SEM of 4) [pmol SNO/mg protein] | time of peak S-nitrosation of mitochondrial proteins (5 μM, liver mitochondria) [min]
CC(=O)NC(C(=O)O)C(C)(C)SN=O (racemic) [SNAP, S-nitroso-N-acetyl-DL-penicillamine, reference compound] | negligible S-nitrosation |  |  |  | 
CC(=O)NC(C(=O)NCCCCC[P+](c1ccccc1)(c1ccccc1)c1ccccc1)C(C)(C)SN=O.CS(=O)(=O)[O-] (stereo not drawn) [MitoSNAP, [5-(2-acetylamino-3-methyl-3-nitrosothio-butyrylamino)-penty1]-triphenylphosphonium methanesulfonate] | extensive, concentration-dependent S-nitrosation | ~1 | ~500 | 359±89 | 2 to 3
